This note sets out measurements from ChEMBL document CHEMBL1201862, “PubChem BioAssay data set” (2004).

SMILES strings stand for the structures.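 Dose response: 5 concentrations. Exposure: 48 h. Format: 96-well plates. Endpoint: linear interpolation; highest concentration if not reached. GI50 marks 50% less growth.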 Calls of active or inactive are those of the source. Cut-off read from the data, not from the text of the source: active = GI50 up to about 1.1 µM and inactive = higher.

Some test systems named below: CAKI-1; CCRF-CEM; DU-145; HOP-92; HT-29; Hs-578T; IGROV-1; MDA-MB-435; MOLT-4; NCI-H226; NCI-H460; NCI/ADR-RES; OVCAR-5; RXF 393; SK-MEL-2; SNB-75; SW-620; TK-10; UACC-257; UO-31.
Holding throughout (experiment): DTP human tumour cell line panel, 48 h

`CCOC(=O)C(=[N+]=[N-])C(=O)C[N+]12CCN(CC1)CC2`: the GI50 in the test with CAKI-1, in the test with CCRF-CEM, in the test with DU-145, in the test on HOP-92, with HT-29 and in the test on Hs-578T was > 100 µM (inactive) each time. The GI50 in the test on IGROV-1, in the test with MDA-MB-435, with MOLT-4, in the test with NCI-H226, in the test with NCI-H460 and in the test with NCI/ADR-RES was > 100 µM (inactive) in each case. Besides, the GI50 in the test with OVCAR-5, in the test on RXF 393, in the test with SK-MEL-2, in the test on SNB-75, with SW-620 and in the test on TK-10 was > 100 µM (inactive) throughout. Moreover, the GI50 in the test with UACC-257 and with UO-31 was > 100 µM (inactive) each time.
As for `O=C(O)c1cc2c(cc1CC(Cc1ccc3c(c1)CCC3)C(=O)O)CCC2` (stereo not given), the GI50 was > 100 µM (inactive) in the test with CAKI-1; > 100 µM (inactive) in the test on CCRF-CEM; > 100 µM (inactive) in the test on DU-145; 20.6 µM (inactive) in the test on HOP-92; > 100 µM (inactive) in the test with HT-29; > 100 µM (inactive) in the test with Hs-578T. The GI50 with IGROV-1, with MDA-MB-435, with MOLT-4, in the test with NCI-H226, in the test on NCI-H460 and in the test with NCI/ADR-RES was > 100 µM (inactive) in each case. For the same compound, the GI50 in the test with OVCAR-5 was > 100 µM (inactive); in the test on RXF 393, > 100 µM (inactive); in the test on SK-MEL-2 it was > 100 µM (inactive); in the test with SNB-75, 98.9 µM (inactive); in the test with SW-620, > 100 µM (inactive); in the test with TK-10, > 100 µM (inactive). Moreover, the GI50 with UACC-257 and in the test with UO-31 was > 100 µM (inactive) throughout.
As for `CCN(CC)c1ccc2cc(-c3nnc(-c4ccccc4)o3)c(=O)oc2c1`, the GI50 in the test with CAKI-1 is > 45.7 µM (inactive); in the test with CCRF-CEM, 3.89 µM (inactive); with DU-145, 66.2 µM (inactive); with HOP-92 it was > 100 µM (inactive); in the test on HT-29, 25.4 µM (inactive); in the test on Hs-578T, > 84.9 µM (inactive). The GI50 is 28.9 µM (inactive) in the test on IGROV-1; > 48.6 µM (inactive) with MDA-MB-435; 0.413 µM (active) in the test with MOLT-4; 29.4 µM (inactive) with NCI-H226; 4.93 µM (inactive) with NCI-H460; 7.67 µM (inactive) in the test on NCI/ADR-RES. Also, the GI50 with OVCAR-5 was 56.2 µM (inactive); in the test on RXF 393, 14.5 µM (inactive); in the test with SK-MEL-2, 19.9 µM (inactive); in the test on SNB-75, 24.3 µM (inactive); in the test with SW-620 it was 30.5 µM (inactive); in the test with TK-10 it was 25.4 µM (inactive). In addition, the GI50 was 32.5 µM (inactive) with UACC-257 and 19.1 µM (inactive) in the test on UO-31.
As to `c1ccc(-c2c(-c3[nH]c4ccccc4c3-c3ccccc3)[nH]c3ccccc23)cc1`, the GI50 in the test on CAKI-1 is 3.33 µM (inactive); in the test with CCRF-CEM, 3.4 µM (inactive); in the test on DU-145, 3.38 µM (inactive); in the test with HOP-92 it was 3.21 µM (inactive); with HT-29, 3.45 µM (inactive); in the test with Hs-578T, 9.38 µM (inactive). Besides, the GI50 with IGROV-1 was 4.75 µM (inactive); in the test on MDA-MB-435, 3.44 µM (inactive); in the test with MOLT-4, 3.35 µM (inactive); in the test on NCI-H226, 11.6 µM (inactive); in the test on NCI-H460, 2.95 µM (inactive); with NCI/ADR-RES, 3.72 µM (inactive). In addition, the GI50 in the test with OVCAR-5 was 11.1 µM (inactive); in the test with RXF 393 it was 1.82 µM (inactive); in the test with SK-MEL-2, 8.45 µM (inactive); in the test on SNB-75, 4.15 µM (inactive); in the test with SW-620, 3.34 µM (inactive); with TK-10, 10.6 µM (inactive). In addition, the GI50 is 12.3 µM (inactive) in the test on UACC-257 and 3.68 µM (inactive) in the test with UO-31.
As to `O=C(CC(=O)Nc1ccccc1Cl)NNC(c1cc(/N=N/c2ccc(Br)cc2)ccc1O)P(O)O` (stereo not given), the GI50 was 1.36 µM (inactive) with CAKI-1; 0.451 µM (active) in the test on CCRF-CEM; 2.42 µM (inactive) with DU-145; 5.98 µM (inactive) with HOP-92; > 10 µM (inactive) in the test on HT-29; > 10 µM (inactive) in the test on Hs-578T. The GI50 was 6.9 µM (inactive) in the test with IGROV-1; 2.04 µM (inactive) with MDA-MB-435; 0.338 µM (active) with MOLT-4; 1.22 µM (inactive) in the test on NCI-H226; 0.537 µM (active) in the test with NCI-H460; 1.07 µM (active) with NCI/ADR-RES. For the same compound, the GI50 was 3.61 µM (inactive) in the test on OVCAR-5; 1.34 µM (inactive) with RXF 393; > 10 µM (inactive) in the test on SK-MEL-2; 1.62 µM (inactive) in the test with SNB-75; 0.647 µM (active) in the test on SW-620; 1.61 µM (inactive) in the test with TK-10. In addition, the GI50 in the test with UACC-257 is 3.2 µM (inactive); in the test on UO-31, 0.995 µM (active).
Regarding `CSc1ncc2c(n1)-c1ccccc1OC2`, the GI50 with CAKI-1 was 19.4 µM (inactive); with CCRF-CEM, 59.2 µM (inactive); in the test on DU-145, 39.4 µM (inactive); in the test on HOP-92 it was 25.6 µM (inactive); with HT-29 it was 40.4 µM (inactive); in the test on Hs-578T, 26.5 µM (inactive). In addition, the GI50 in the test with IGROV-1 is 34.4 µM (inactive); in the test with MDA-MB-435 it was 56.4 µM (inactive); in the test on MOLT-4, 50 µM (inactive); with NCI-H226, 67 µM (inactive); with NCI-H460, 42.9 µM (inactive); in the test with NCI/ADR-RES, 71.3 µM (inactive). For the same compound, the GI50 was > 100 µM (inactive) in the test on OVCAR-5; 41.5 µM (inactive) in the test with RXF 393; > 100 µM (inactive) with SK-MEL-2; 43.6 µM (inactive) with SNB-75; 62.2 µM (inactive) with SW-620; 45.1 µM (inactive) in the test on TK-10. The GI50 is > 100 µM (inactive) in the test with UACC-257 and 38.8 µM (inactive) with UO-31.
In the case of `COc1cc(I)c2c3c1OC1C34CCN(C)C(C2)C4=CC(I)C1(OC)OC` (stereo not given), the GI50 in the test with CAKI-1 is 22.4 µM (inactive); with CCRF-CEM, 5.36 µM (inactive); with DU-145, 18.7 µM (inactive); with HOP-92 it was 13.1 µM (inactive); with HT-29, 26.5 µM (inactive); with Hs-578T, 53.2 µM (inactive). Besides, the GI50 was 20.1 µM (inactive) in the test with IGROV-1; 13.2 µM (inactive) in the test on MDA-MB-435; 16.2 µM (inactive) in the test with MOLT-4; 22.6 µM (inactive) with NCI-H226; 19.1 µM (inactive) in the test on NCI-H460; 28.2 µM (inactive) in the test on NCI/ADR-RES. Besides, the GI50 with OVCAR-5 is 24.2 µM (inactive); with RXF 393 it was 16.3 µM (inactive); with SK-MEL-2, 16.4 µM (inactive); with SNB-75, 15.9 µM (inactive); in the test with SW-620 it was 19 µM (inactive); in the test on TK-10, 21.3 µM (inactive). For the same compound, the figures for the GI50 in the test with UACC-257 and in the test with UO-31 were 19.3 µM (inactive) and 18.4 µM (inactive), respectively.
With `COc1ccccc1C[C@@H]1OC2(C=CC(=O)C=C2)O[C@H]1Cc1ccccc1OC`, the GI50 with CAKI-1 was 10.3 µM (inactive); in the test with CCRF-CEM it was 3.33 µM (inactive); with DU-145, 18.4 µM (inactive); in the test on HOP-92, 9.55 µM (inactive); in the test on HT-29, 9.02 µM (inactive); with Hs-578T it was 10 µM (inactive). Further, the GI50 in the test with IGROV-1 was 6.75 µM (inactive); with MDA-MB-435 it was 14.3 µM (inactive); with MOLT-4, 2.04 µM (inactive); in the test on NCI-H226, 8.47 µM (inactive); in the test on NCI-H460 it was 23 µM (inactive); in the test with NCI/ADR-RES it was 8.38 µM (inactive). Besides, the GI50 in the test with OVCAR-5 was 8.43 µM (inactive); with RXF 393, 1.16 µM (inactive); in the test with SK-MEL-2, 9.29 µM (inactive); in the test on SNB-75, 9.04 µM (inactive); in the test with SW-620, 1.79 µM (inactive); in the test with TK-10 it was 9.06 µM (inactive). Moreover, the results for the GI50 in the test with UACC-257 and in the test on UO-31 were 8.11 µM (inactive) and 6.35 µM (inactive), respectively.
For the compound `O=C(NP(=O)(N1CC1)N1CC1)c1cc(I)ccc1I` [DIIODBENZOTEPH], the GI50 is > 22.3 µM (inactive) with CAKI-1; 4.86 µM (inactive) in the test on CCRF-CEM; 15.6 µM (inactive) with DU-145; 59.7 µM (inactive) in the test on HOP-92; 62.7 µM (inactive) in the test on HT-29; 98.9 µM (inactive) in the test on Hs-578T. Further, the GI50 in the test with IGROV-1 was 40.6 µM (inactive); in the test on MDA-MB-435, 32.3 µM (inactive); in the test on MOLT-4, 5.58 µM (inactive); in the test with NCI-H226 it was 46.1 µM (inactive); in the test with NCI-H460 it was 3.72 µM (inactive); in the test with NCI/ADR-RES it was 23.3 µM (inactive). Besides, the GI50 with OVCAR-5 was > 84.1 µM (inactive); in the test on RXF 393 it was 34.6 µM (inactive); in the test with SK-MEL-2 it was 61 µM (inactive); in the test with SNB-75, 37.9 µM (inactive); in the test on SW-620, 67.5 µM (inactive); in the test with TK-10, > 100 µM (inactive). Besides, the GI50 is > 64.3 µM (inactive) in the test on UACC-257 and 28.1 µM (inactive) in the test with UO-31.
In the case of `COc1ccc(Oc2ccc3cc4c(cc3c2O)OCO4)c2cc(C)oc12`, the GI50 in the test on CAKI-1 was 30.1 µM (inactive); with CCRF-CEM, 21.7 µM (inactive); in the test with DU-145, 39.7 µM (inactive); with HOP-92 it was 25.2 µM (inactive); in the test with HT-29, 23.2 µM (inactive); in the test with Hs-578T, 37.7 µM (inactive). Moreover, the GI50 is 37.8 µM (inactive) in the test with IGROV-1; 22.3 µM (inactive) in the test with MDA-MB-435; 14.3 µM (inactive) in the test on MOLT-4; 25.4 µM (inactive) in the test with NCI-H226; 21.5 µM (inactive) in the test with NCI-H460; 20.9 µM (inactive) with NCI/ADR-RES. Moreover, the GI50 in the test with OVCAR-5 was 59 µM (inactive); in the test with RXF 393 it was 15.7 µM (inactive); in the test on SK-MEL-2, 18.5 µM (inactive); with SNB-75, 33.4 µM (inactive); with SW-620 it was 27.2 µM (inactive); with TK-10, 25.4 µM (inactive). Further, the GI50 in the test on UACC-257 is 20.8 µM (inactive); with UO-31 it was 29.1 µM (inactive).
